# Assay results from patent US20060079566A1, “PDK-1/Akt signaling inhibitors” (priority 2003, published 2006).
# Key:
# immunoprecipitated Akt = assay: Direct inhibition of immunoprecipitated Akt kinase activity; assay type: biochemical, human
# BT-549 = assay: NCI DTP screen (SRB), Breast Cancer; assay type: cell-based; details: Homo sapiens
# Protocol: (§6) After 24 h, two plates of each cell line are fixed in situ with TCA, to represent a measurement of the cell population for each cell line at the time of drug addition (Tz). Experimental drugs are solubilized in dimethyl sulfoxide at 400-fold the desired final maximum test concentration and stored frozen prior to use. […]
# (§7) Following drug addition, the plates are incubated for an additional 48 h at 37° C., 5% CO2, 95% air, and 100% relative humidity. […] Bound stain is subsequently solubilized with 10 mM trizma base, and the absorbance is read on an automated plate reader at a wavelength of 515 nm. […] Using the seven absorbance measurements [time zero, (Tz), control growth, (C), and test growth in the presence of drug at the five concentration levels (Ti)], the percentage growth is calculated at each of the drug concentrations levels. Percentage growth inhibition is calculated as: [(Ti−Tz)/(C−Tz)]×100 for concentrations for which Ti>/=Tz [(Ti−Tz)/Tz]×100 for concentrations for which Ti<Tz […]
# 786-0 = assay: NCI DTP screen (SRB), Renal Cancer; assay type: cell-based; details: Homo sapiens
# Protocol: (§1) Screening of compounds 70 and 71 against several cancer cell lines The human tumor cell lines of the cancer screening panel are grown in RPMI 1640 medium containing 5% fetal bovine serum and 2 mM L-glutamine. For a typical screening experiment, cells are inoculated into 96 well microtiter plates in 100 μL at plating densities ranging from 5,000 to 40,000 cells/well depending on the doubling time of individual cell lines. After cell inoculation, the microtiter plates are incubated at 37° C., 5% CO2, 95% air and 100% relative humidity for 24 h prior to addition of experimental drugs.
# (§2) After 24 h, two plates of each cell line are fixed in situ with TCA, to represent a measurement of the cell population for each cell line at the time of drug addition (Tz). Experimental drugs are solubilized in dimethyl sulfoxide at 400-fold the desired final maximum test concentration and stored frozen prior to use. At the time of drug addition, an aliquot of frozen concentrate is thawed and diluted to twice the desired final maximum test concentration with complete medium containing 50 μg/ml gentamicin. Additional four, 10-fold or ½ log serial dilutions are made to provide a total of five drug concentrations plus control. Aliquots of 100 μl of these different drug dilutions are added to the appropriate microtiter wells already containing 100 μl of medium, resulting in the required final drug concentrations.
# (§3) Following drug addition, the plates are incubated for an additional 48 h at 37° C., 5% CO2, 95% air, and 100% relative humidity. For adherent cells, the assay is terminated by the addition of cold TCA. Cells are fixed in situ by the gentle addition of 50 μl of cold 50% (w/v) TCA (final concentration, 10% TCA) and incubated for 60 minutes at 4° C. The supernatant is discarded, and the plates are washed five times with tap water and air dried. Sulforhodamine B (SRB) solution (100 μl) at 0.4% (w/v) in 1% acetic acid is added to each well, and plates are incubated for 10 minutes at room temperature. After staining, unbound dye is removed by washing five times with 1% acetic acid and the plates are air dried. Bound stain is subsequently solubilized with 10 mM trizma base, and the absorbance is read on an automated plate reader at a wavelength of 515 nm. For suspension cells, the methodology is the same except that the assay is terminated by fixing settled cells at the bottom of the wells by gently adding 50 μl of 80% TCA (final concentration, 16% TCA). Using the seven absorbance measurements [time zero, (Tz), control growth, (C), and test growth in the presence of drug at the five concentration levels (Ti)], the percentage growth is calculated at each of the drug concentrations levels. Percentage growth inhibition is calculated as: [(Ti−Tz)/(C−Tz)]×100 for concentrations for which Ti>/=Tz [(Ti−Tz)/Tz]×100 for concentrations for which Ti<Tz
# (§4) Three dose response parameters are calculated for each experimental agent. […] The drug concentration resulting in total growth inhibition (TGI) is calculated from Ti=Tz. […] Values are calculated for each of these three parameters if the level of activity is reached; however, if the effect is not reached or is exceeded, the value for that parameter is expressed as greater or less than the maximum or minimum concentration tested.
# CAKI-1 = assay: NCI DTP screen (SRB), Renal Cancer; assay type: cell-based; details: Homo sapiens
# Protocol: as §1, §2, §3, §4
# SN12C = assay: NCI DTP screen (SRB), Renal Cancer; assay type: cell-based; details: Homo sapiens
# Protocol: as §1, §2, §3, §4
# ACHN = assay: NCI DTP screen (SRB), Renal Cancer; assay type: cell-based; details: Homo sapiens
# Protocol: as §1, §2, §3, §4
# A498 = assay: NCI DTP screen (SRB), Renal Cancer; assay type: cell-based; details: Homo sapiens
# Protocol: as §1, §2, §3, §4
# TK-10 = assay: NCI DTP screen (SRB), Renal Cancer; assay type: cell-based; details: Homo sapiens
# Protocol: as §1, §2, §3, §4
# DU-145 = assay: NCI DTP screen (SRB), Prostate Cancer; assay type: cell-based; details: Homo sapiens
# Protocol: as §1, §2
# (§5) Following drug addition, the plates are incubated for an additional 48 h at 37° C., 5% CO2, 95% air, and 100% relative humidity. For adherent cells, the assay is terminated by the addition of cold TCA. Cells are fixed in situ by the gentle addition of 50 μl of cold 50% (w/v) TCA (final concentration, 10% TCA) and incubated for 60 minutes at 4° C. […] Bound stain is subsequently solubilized with 10 mM trizma base, and the absorbance is read on an automated plate reader at a wavelength of 515 nm. […] Using the seven absorbance measurements [time zero, (Tz), control growth, (C), and test growth in the presence of drug at the five concentration levels (Ti)], the percentage growth is calculated at each of the drug concentrations levels. Percentage growth inhibition is calculated as: [(Ti−Tz)/(C−Tz)]×100 for concentrations for which Ti>/=Tz [(Ti−Tz)/Tz]×100 for concentrations for which Ti<Tz
# as §4
# PC-3 = assay: NCI DTP screen (SRB), Prostate Cancer; assay type: cell-based; details: Homo sapiens
# Protocol: as §1, §2, §5, §4
# SK-MEL-28 = assay: NCI DTP screen (SRB), Melanoma; assay type: cell-based; details: Homo sapiens
# Protocol: as §1, §2, §3, §4
# LOX IMVI = assay: NCI DTP screen (SRB), Melanoma; assay type: cell-based; details: Homo sapiens, LOX IMVI
# Protocol: as §1, §2, §3, §4
# SK-MEL-2 = assay: NCI DTP screen (SRB), Melanoma; assay type: cell-based
# Protocol: as §1, §2, §3, §4
# M14 = assay: NCI DTP screen (SRB), Melanoma; assay type: cell-based; details: Homo sapiens
# Protocol: as §1, §2, §3, §4
# SK-MEL-5 = assay: NCI DTP screen (SRB), Melanoma; assay type: cell-based; details: Homo sapiens
# Protocol: as §1, §2, §3, §4
# [1] = tested on: sixty human tumor cell lines; assay: NCI DTP sixty cell line assay, means over the panel; assay type: cell-based
# Protocol: as §1, §2, §3, §4
# HCT-116 = assay: NCI DTP screen (SRB), Colon Cancer; assay type: cell-based; details: Homo sapiens
# Protocol: as §1, §2, §3, §4
# SW-620 = assay: NCI DTP screen (SRB), Colon Cancer; assay type: cell-based; details: Homo sapiens
# Protocol: as §1, §2, §3, §4
# COLO 205 = assay: NCI DTP screen (SRB), Colon Cancer; assay type: cell-based; details: Homo sapiens
# Protocol: as §1, §2, §3, §4
# KM12 = assay: NCI DTP screen (SRB), Colon Cancer; assay type: cell-based; details: Homo sapiens
# Protocol: as §1, §2, §3, §4
# MCP7 = assay: NCI DTP screen (SRB), Breast Cancer; assay type: cell-based, human; details: MCP7
# Protocol: as §1, §2, §3, §4
# HOP-92 = assay: NCI DTP screen (SRB), Non-Small Cell Lung Cancer; assay type: cell-based; details: Homo sapiens, HOP-92, read-out: LC50
# Protocol: as §6, §7
# HCT-15 = assay: NCI DTP screen (SRB), Colon Cancer; assay type: cell-based; details: Homo sapiens
# Protocol: as §6, §7
smiles,measurement,setting,value
"NCC(=O)Nc1ccc(-n2nc(C(F)(F)F)cc2-c2ccc3c(ccc4ccccc43)c2)cc1 [Compound 70, 2-Amino-N-{4-[5-(2-phenanthrenyl)-3-(trifluoromethyl)-1H-pyrazol-1-yl]-phenyl}-acetamide]",direct inhibitory effect on immunoprecipitated Akt kinase activity,immunoprecipitated Akt,no appreciable direct inhibition
same,GI50,BT-549; BT-549,1250 nM
same,CC50,"BT-549; BT-549, read-out: LC50",6980 nM
same,GI50,786-0; 786-0,1200 nM
same,CC50,"786-0; 786-0, read-out: LC50",6790 nM
same,GI50,CAKI-1,703 nM
same,GI50,SN12C,1580 nM
same,GI50,ACHN,1420 nM
same,GI50,A498; A498,2300 nM
same,CC50,"A498; A498, read-out: LC50",66900 nM
same,GI50,TK-10; TK-10,1480 nM
same,CC50,"TK-10; TK-10, read-out: LC50",6470 nM
same,GI50,DU-145; DU-145,1730 nM
same,CC50,"DU-145; DU-145, read-out: LC50",6950 nM
same,GI50,PC-3; PC-3,705 nM
same,CC50,"PC-3; PC-3, read-out: LC50",6020 nM
same,GI50,SK-MEL-28; SK-MEL-28,1220 nM
same,CC50,"SK-MEL-28; SK-MEL-28, read-out: LC50",5690 nM
same,GI50,LOX IMVI,836 nM
same,GI50,"SK-MEL-2; Homo sapiens, SK-MEL-2",2330 nM
same,CC50,"SK-MEL-2; Homo sapiens, SK-MEL-2, read-out: LC50",> 100000 nM
same,Percent Growth,"SK-MEL-2; SK-MEL-2, Log10 Concentration −5.0",−67%
same,GI50,M14; M14,2100 nM
same,CC50,"M14; M14, read-out: LC50",> 100000 nM
same,GI50,SK-MEL-5,1360 nM
same,range in which cell growth is completely suppressed in a diverse range of tumor cell lines,[1],3 to 5 µM
same,CC50,"[1]; Homo sapiens, 48 h, read-out: mean LC50 among the sixty cell lines",24000 nM
same,GI50,"[1]; Homo sapiens, 48 h, two-day treatment, serum-containing medium, read-out: mean GI50 among the sixty cell lines",1100 nM
same,concentration at which many cell lines respond to the growth inhibitory effect,"[1]; two-day exposure, 5% FBS-containing medium",≥ 0.1 µM
same,GI50,HCT-116; HCT-116,1270 nM
same,CC50,"HCT-116; HCT-116, read-out: LC50",> 100000 nM
same,GI50,SW-620; SW-620,1120 nM
same,CC50,"SW-620; SW-620, read-out: LC50",> 100000 nM
same,GI50,COLO 205,1190 nM
same,GI50,KM12; KM12,1070 nM
same,CC50,"KM12; KM12, read-out: LC50",6620 nM
same,GI50,MCP7; Homo sapiens,718 nM
same,Percent Growth,MCP7; Log10 Concentration −5.0,−57%
same,Percent Growth,MCP7; Log10 Concentration −6.0,43%
same,CC50,HOP-92,5870 nM
same,GI50,HCT-15; HCT-15,365 nM
same,CC50,"HCT-15; HCT-15, read-out: LC50",> 100000 nM
